Reference: article PMC9437101, “Curcumin-based-fluorescent probes targeting ALDH1A3 as a promising tool for glioblastoma precision surgery and early diagnosis” (Communications Biology, 2022)
pKd: −log10 of the molar value. “And” between values parts separate entries of the source, which are not always exact repeats. Equal entries are not always repeated.

How the values were obtained:
Type in all cases: binding
ALDH1A2 [1] = target: T1, ALDH1A2 (Homo sapiens, UniProt O94788); experiment: Kd evaluation by fluorescence emission assay; details: probe 10 μM, ALDH1A2 100 to 1.1719 μM
T1 construct: E. coli BL21 (DE3) were transformed with the full-length expression vector of each isoform; His-tag; made in house; host or cells: E. coli BL21 (DE3)
T1 sequence (O94788 1-518): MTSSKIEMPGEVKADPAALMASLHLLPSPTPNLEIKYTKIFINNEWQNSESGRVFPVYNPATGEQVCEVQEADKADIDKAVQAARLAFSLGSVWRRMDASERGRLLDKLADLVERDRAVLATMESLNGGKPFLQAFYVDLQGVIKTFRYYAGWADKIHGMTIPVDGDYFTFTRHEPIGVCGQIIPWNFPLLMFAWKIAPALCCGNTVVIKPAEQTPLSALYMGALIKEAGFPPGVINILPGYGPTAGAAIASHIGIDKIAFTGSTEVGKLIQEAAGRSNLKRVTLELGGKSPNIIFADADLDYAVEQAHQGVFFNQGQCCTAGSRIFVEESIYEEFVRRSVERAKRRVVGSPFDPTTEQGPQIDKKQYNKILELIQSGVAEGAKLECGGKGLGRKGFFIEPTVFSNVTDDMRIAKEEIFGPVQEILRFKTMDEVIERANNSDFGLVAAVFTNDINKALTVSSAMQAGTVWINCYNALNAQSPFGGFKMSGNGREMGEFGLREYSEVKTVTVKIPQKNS
Description: (§1) To evaluate the Kd constant between the two probes and the isoenzymes ALDH1A1, ALDH1A2 and ALDH1A3A we performed a fluorescence emission assay. We used a Tecan Spark with Greiner Bio-One 96-UV-Transparent Microplates. A single reaction was performed in a total volume of 100 μl per well containing 20 mM Tris HCl pH 8.0, 1 mM β-mercaptoethanol, 150 mM KCl, 500 μM NAD^+ and 10 μM fluorescent probe with a 5% DMSO final concentration, in the presence of different ALDH1As concentrations, from 100 μM to 1.1719 μM. Each reaction mix was preincubated for 10 min at 25 °C before the analysis. The obtained raw data were analyzed using GraphPad to calculate Kd values.

ALDH1A3 [2] = target: T2, ALDH1A3 (Homo sapiens, UniProt P47895); experiment: Kd evaluation by fluorescence emission assay; details: probe 10 μM, ALDH1A3 100 to 1.1719 μM
T2 construct: E. coli BL21 (DE3) were transformed with the full-length expression vector of each isoform; His-tag; made in house; host or cells: E. coli BL21 (DE3)
T2 sequence (P47895 1-512): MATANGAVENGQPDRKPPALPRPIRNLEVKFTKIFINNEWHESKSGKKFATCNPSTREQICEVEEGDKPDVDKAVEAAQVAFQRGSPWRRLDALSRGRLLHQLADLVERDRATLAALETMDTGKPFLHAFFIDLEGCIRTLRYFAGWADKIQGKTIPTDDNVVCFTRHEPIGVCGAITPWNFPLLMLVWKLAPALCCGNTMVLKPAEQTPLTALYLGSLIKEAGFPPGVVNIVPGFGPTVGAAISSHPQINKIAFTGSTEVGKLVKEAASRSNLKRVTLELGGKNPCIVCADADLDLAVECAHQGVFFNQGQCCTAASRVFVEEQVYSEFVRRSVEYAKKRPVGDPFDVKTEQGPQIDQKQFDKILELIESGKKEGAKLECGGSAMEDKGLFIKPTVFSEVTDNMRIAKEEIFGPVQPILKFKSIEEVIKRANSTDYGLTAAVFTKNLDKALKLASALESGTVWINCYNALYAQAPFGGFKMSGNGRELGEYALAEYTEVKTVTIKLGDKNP
Description: as §1

ALDH1A1 [3] = target: T3, ALDH1A1 (Homo sapiens, UniProt P00352); experiment: Kd evaluation by fluorescence emission assay; details: probe 10 μM, ALDH1A1 100 to 1.1719 μM
T3 construct: E. coli BL21 (DE3) were transformed with the full-length expression vector of each isoform; His-tag; made in house; host or cells: E. coli BL21 (DE3)
T3 sequence (P00352 1-501): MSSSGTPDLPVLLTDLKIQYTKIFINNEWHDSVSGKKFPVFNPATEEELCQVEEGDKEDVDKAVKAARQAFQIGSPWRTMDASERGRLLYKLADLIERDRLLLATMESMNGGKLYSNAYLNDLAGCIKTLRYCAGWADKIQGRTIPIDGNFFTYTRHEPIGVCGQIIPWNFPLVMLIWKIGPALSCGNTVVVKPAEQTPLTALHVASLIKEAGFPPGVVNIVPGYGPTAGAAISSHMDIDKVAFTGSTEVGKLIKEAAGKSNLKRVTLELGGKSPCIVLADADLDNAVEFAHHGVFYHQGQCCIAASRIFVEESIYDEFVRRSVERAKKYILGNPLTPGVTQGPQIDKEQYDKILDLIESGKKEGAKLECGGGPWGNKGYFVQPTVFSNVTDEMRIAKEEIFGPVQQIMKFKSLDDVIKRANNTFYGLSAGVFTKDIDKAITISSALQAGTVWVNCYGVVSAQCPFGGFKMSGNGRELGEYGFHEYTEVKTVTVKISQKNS
Description: as §1

ALDH1A2 [4] = target: T1, ALDH1A2; experiment: Fluorescence signal change of probe with recombinant enzyme (cross reaction assay); details: probe 10 μM; for probe fluorescence intensity (normalized): ALDH1A2 100 μM
Excerpt: (§2) All five fluorescent compounds were firstly characterized for their solubility in physiological buffer and for their absorbance values. We then performed a 3D analysis using a TECAN SPARK to simultaneously evaluate the excitation and the emission wavelengths, that were supposed to be similar to the curcumin ones[48]. […] For these reasons, we decided to continue the biochemical characterization on Probe 10 and 11 using the selected parameters (Fig. 2). The fluorescent signal changes for both molecules upon binding to the target, were firstly evaluated with recombinant human ALDH1A3. […] To better characterized our fluorescent compounds, we tested their potential cross-reactivity toward the other two isoforms of the ALDH1A subfamily. […] In addition, a wide range of biologically relevant analytes were tested at a concentration of 100 μM in complex with a fixed concentration of 10 μM of the probe (either probe 10 or probe 11), to make sure that no potential off-target signals could affect the analysis. More specifically, we checked if there were abnormal fluorescence signals that could have been contributed by the presence of biologically relevant compounds, (e.g., biologically relevant amino acids), to buffers and molecules commonly used in experimental procedures.
(§3) Based on the values obtained by the 3D analysis, a wide series of biomolecules directly used in the biochemical experiment, both in vitro and in vivo, and listed in Table 1, were tested in complex with a fixed concentration of 10 μM of both probes, to measure any possible cross reaction signal.

ALDH1A3 [5] = target: T2, ALDH1A3; experiment: as above; details: probe 10 μM; for probe fluorescence intensity (normalized): ALDH1A3 100 μM; for increase in the intensity of the fluorescent signal on addition of ALDH1A3: vs probe alone
Excerpt: as §2, §3

ALDH1A1 [6] = target: T3, ALDH1A1; experiment: as above; details: probe 10 μM; for probe fluorescence intensity (normalized): ALDH1A1 100 μM
Excerpt: as §2, §3

| probe fluorescence intensity (normalized) (ALDH1A2 [4]; listed as probe A) | probe fluorescence intensity (normalized) (ALDH1A3 [5]; listed as probe A) | probe fluorescence intensity (normalized) (ALDH1A1 [6]; listed as probe A) | SMILES | pKd (ALDH1A2 [1]) | pKd (ALDH1A3 [2]) | pKd (ALDH1A1 [3]) | probe fluorescence intensity (normalized) (ALDH1A2 [4]; listed as probe B) | reduction of the fluorescence signal with ALDH1A2 compared to ALDH1A3 (ALDH1A2 [4]) [folds] | probe fluorescence intensity (normalized) (ALDH1A3 [5]; listed as probe B) | increase in the intensity of the fluorescent signal on addition of ALDH1A3 (ALDH1A3 [5]) | probe fluorescence intensity (normalized) (ALDH1A1 [6]; listed as probe B) | reduction of the fluorescence signal with ALDH1A1 compared to ALDH1A3 (ALDH1A1 [6]) |
| --- | --- | --- | --- | --- | --- | --- | --- | --- | --- | --- | --- | --- |
|  |  |  | COc1cc(/C=C/C(O)=C/C(=O)/C=C/c2ccc(OCc3cn(CCOc4ccc(C=O)cc4)nn3)c(OC)c2)ccc1O [Probe 10] | 4.43 | 4.42 | 4.51 | 4.479 and 4.412 and 3.9708 | ~4 | 11.108 and 11.7869 and 9.709 | about 12 folds | 2.886 and 2.75 and 2.685 | about 2 folds |
| 5.638 and 5.434 and 5.428 | 7.871 and 7.494 and 8.003 | 4.322 and 4.415 and 4.4337 | CCOC(=O)Cn1cc(COc2ccc(/C=C/C(=O)/C=C(O)/C=C/c3ccc(O)c(OC)c3)cc2OC)nn1 [Probe 11] | 3.90 | 4.07 | 4.37 |  | 6 |  | ~8 folds |  | 4 folds |
